Consider one compound from patent publication US20040106148A1, “Polypeptides” (priority 2000, published 2004).

Experiment in all cases: Surface plasmon resonance (BIACore), GST fusion binding to phosphoinositide in supported lipid monolayer
Assay [1] has as its target T1, mouse TAPP2 C-terminal PH domain (residues 174 to 425), GST fusion (Mus musculus, UniProt Q9ERS5).
T1 construct: made in house; host or cells: human embryonic kidney 293 cells (pEBG-2T)
The settings on record: read-out: apparent Kd. An excerpt:
Cloning of PH domains and preparation of expression constructs. All the human and mouse EST's were obtained from the I.M.A.G.E. Consortium and sequenced. The plant EST (accession number T04439) encoding a full length clone of AtPH1 was obtained from the Arabidopsis Biological Research. Centre (Ohio University). The sequence of each EST was verified and the full length PH domain of each EST was amplified by PCR using the Hi-fidelity PCR system with primers designed to incorporate a Kozak site, an initiating ATG codon followed by a myc epitope tag and a stop codon after the PH domain. […]
(§1) Kinetic analyses of the interactions between the GST PH domain fusions and the polyphosphoinositides were made using surface plasmon resonance based procedures as described previously, with the following modifications. […] Data were analysed using the bimolecular interaction model and the global fitting feature of the BIAevaluation 3 software for several sensorgrams at different protein concentrations. […] The relative binding affinities of each protein relative to the binding of full length GST-TAPP1 to PtdIns(3,4)P2 were also calculated.

In assay [2] the target is T2, human TAPP1, full length (FL-TAPP1, accession AF286160), wild type, GST fusion (Homo sapiens, UniProt Q9HB21, T320A).
T2 construct: made in house; host or cells: human embryonic kidney 293 cells (pEBG-2T)
Particulars: supported phosphatidylcholine monolayers, 1:1 binding model, NB, no binding detected, read-out: Apparent Kd. How it is done: (§2) Expression of GST-PH domains in human embryonic kidney 293 cells. […] For the expression of each construct, twenty 10 cm diameter dishes of 293 cells were cultured and each dish transfected with 5 μg of the pEBG-2T construct, using a modified calcium phosphate method. 36 h post-transfection, the cells were lysed in 1 ml of ice-cold Buffer A, the lysates pooled, centrifuged at 4° C. for 10 min at 13,000×g and the GST-fusion proteins were purified by affinity chromatography on glutathione-Sepharose and stored as described above.
(§3) Cloning TAPP1, TAPP2, FAPP1 and PEPP1. Full length human TAPP1, full length mouse TAPP2, partial mouse TAPP1, partial human TAPP2, and full length human and mouse FAPP1 sequences were deduced by sequencing the EST clones listed in Table 3. […] The constructs used to express full length and deletion mutants of TAPP1 and TAPP2 were generated by PCR, using as a template ESTs encoding full length human TAPP1 (accession number AI216176) and full length mouse TAPP2 (accession number AA111410). […]
as §1
(§4) We studied the specificity and affinity of interaction of the PH domains for phosphoinositide lipids using either a “protein-lipid overlay” assay (FIG. 2) or the more quantitative surface plasmon resonance based approach (Table 2). […] For the surface plasmon resonance based assay, the apparent Kd values of the GST PH domain fusion proteins resulting from their interaction with a supported lipid monolayer containing a low mole fraction of phosphoinositide, was determined (Table 2).

The target of assay [3] is T3, human TAPP1, full length, mutant R28L (FL-TAPP1 [R28L]), GST fusion (Homo sapiens, UniProt Q9HB21, R28L/T320A).
T3 construct: wild type and mutant forms of full length (FL); made in house; host or cells: human embryonic kidney 293 cells (pEBG-2T)
Particulars: supported phosphatidylcholine monolayers, 1:1 binding model, read-out: Apparent Kd. How it is done: as §2, §3, §1, §4

For assay [4], the target named is T4, mouse TAPP2, full length (FL-TAPP2, accession AF286161), wild type, GST fusion (Mus musculus, UniProt Q9ERS5).
T4 construct: made in house; host or cells: human embryonic kidney 293 cells (pEBG-2T)
Particulars: supported phosphatidylcholine monolayers, 1:1 binding model, NB, no binding detected, read-out: Apparent Kd. The protocol:
as §2, §3, §1, §4

Several values for one entry are separate records, joined by “and”; a condition that tells them apart may be missing. Identical values can stand only once.

T2 sequence (Q9HB21 whole entry T320A, the tested form may be a part): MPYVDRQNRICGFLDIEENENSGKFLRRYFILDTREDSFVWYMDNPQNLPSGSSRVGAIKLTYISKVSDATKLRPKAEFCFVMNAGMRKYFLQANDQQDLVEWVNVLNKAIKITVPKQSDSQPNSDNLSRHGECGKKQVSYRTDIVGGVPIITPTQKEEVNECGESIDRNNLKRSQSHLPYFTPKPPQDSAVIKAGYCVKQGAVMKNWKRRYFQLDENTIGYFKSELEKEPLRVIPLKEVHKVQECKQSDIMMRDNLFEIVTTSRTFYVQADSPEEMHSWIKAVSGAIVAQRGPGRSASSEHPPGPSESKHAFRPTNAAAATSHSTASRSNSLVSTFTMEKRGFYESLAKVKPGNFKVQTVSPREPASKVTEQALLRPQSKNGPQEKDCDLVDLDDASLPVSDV
T3 sequence (Q9HB21 whole entry R28L/T320A, the tested form may be a part): as the sequence (Q9HB21 whole entry T320A, the tested form may be a part) above, with R28L counted along it
T1 sequence (Q9ERS5 174-425): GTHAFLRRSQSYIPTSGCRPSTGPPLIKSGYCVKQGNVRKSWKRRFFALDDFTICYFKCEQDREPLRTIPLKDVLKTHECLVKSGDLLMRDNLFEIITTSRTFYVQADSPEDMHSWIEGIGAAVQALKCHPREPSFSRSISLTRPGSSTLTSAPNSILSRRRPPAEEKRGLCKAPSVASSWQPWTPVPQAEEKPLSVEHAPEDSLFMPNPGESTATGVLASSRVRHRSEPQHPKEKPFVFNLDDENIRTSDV
T4 sequence (Q9ERS5 whole entry, the tested form may be a part): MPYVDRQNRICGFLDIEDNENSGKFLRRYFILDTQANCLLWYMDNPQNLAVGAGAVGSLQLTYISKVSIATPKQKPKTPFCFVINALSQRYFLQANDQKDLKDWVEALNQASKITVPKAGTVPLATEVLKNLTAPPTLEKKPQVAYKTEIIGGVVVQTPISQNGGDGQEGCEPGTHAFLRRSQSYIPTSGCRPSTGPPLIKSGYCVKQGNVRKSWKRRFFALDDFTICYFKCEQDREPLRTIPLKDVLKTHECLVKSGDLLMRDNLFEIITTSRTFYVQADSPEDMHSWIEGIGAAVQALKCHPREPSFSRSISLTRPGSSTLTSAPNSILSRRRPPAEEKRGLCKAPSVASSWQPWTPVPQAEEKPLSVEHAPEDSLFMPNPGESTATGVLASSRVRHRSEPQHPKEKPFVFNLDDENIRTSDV

Turning to `CCCCCCCCCCCCCCCC(=O)OC[C@H](COP(=O)(O)O[C@H]1[C@H](O)[C@@H](O)[C@H](OP(=O)(O)O)[C@@H](OP(=O)(O)O)[C@H]1O)OC(=O)CCCCCCCCCCCCCCC` [PtdIns(3,4)P2], the Kd in assay [1] is 30 nM; in assay [2], 5 nM and ~5 nM; in assay [3] it was 28 nM; in assay [4] it was 30 nM.
